Patent US10744141B2, “Compositions and methods for treating cancer” (CASE WESTERN RESERVE UNIVERSITY, priority 2015, dated 2020)
Entries after “also recorded” stand apart in the source; their conditions may differ.

Key:
[1] = test system: MOLT4; test: Western blot time course of Y307 dephosphorylation and target engagement; format: cell-based; settings: MOLT4, increasing doses, various timepoints
Procedure: FIG. 3 illustrates a western blot analysis showing the kinetics of Y307 dephosphorylation and target engagement induced by Compound 1.
To evaluate the kinetics of Y307 dephosphorylation in the context of SMAP-mediated phosphatase activation, a time course study was conducted in the c-Myc driven T-ALL cell line MOLT4 with increasing doses of Compound 1 at various timepoints. PP2A has been well established to dephosphorylate the c-Myc proto-oncogene via dephosphorylation at Serine62 as a priming event for proteasome-mediated degradation, and prior work in the lab has validated Compound 1 mediates c-Myc proteolysis in in vitro models of c-Myc driven disease.

[2] = target: PP2A A-C dimer (Homo sapiens, UniProt P30153+P67775); test: Radiolytic MS footprinting of PP2A A-C dimer with and without Compound 1
Chain of PP2A A-C dimer (P30153 whole entry): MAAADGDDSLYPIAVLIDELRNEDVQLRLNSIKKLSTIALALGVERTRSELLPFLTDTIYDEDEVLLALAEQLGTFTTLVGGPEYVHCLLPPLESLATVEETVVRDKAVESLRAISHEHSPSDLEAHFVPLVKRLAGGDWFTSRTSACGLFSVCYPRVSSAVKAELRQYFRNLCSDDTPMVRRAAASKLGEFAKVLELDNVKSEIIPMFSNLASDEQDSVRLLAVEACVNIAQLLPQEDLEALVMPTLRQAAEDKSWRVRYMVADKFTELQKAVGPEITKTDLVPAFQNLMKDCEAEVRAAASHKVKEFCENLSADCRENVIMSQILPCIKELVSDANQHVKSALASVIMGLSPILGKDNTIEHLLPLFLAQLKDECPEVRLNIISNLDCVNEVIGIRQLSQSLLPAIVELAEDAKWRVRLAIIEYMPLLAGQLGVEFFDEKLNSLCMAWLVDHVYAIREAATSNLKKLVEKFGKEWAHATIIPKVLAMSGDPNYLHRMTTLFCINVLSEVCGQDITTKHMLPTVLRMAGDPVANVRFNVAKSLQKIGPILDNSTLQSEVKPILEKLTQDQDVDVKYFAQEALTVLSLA
Chain of PP2A A-C dimer (P67775 whole entry): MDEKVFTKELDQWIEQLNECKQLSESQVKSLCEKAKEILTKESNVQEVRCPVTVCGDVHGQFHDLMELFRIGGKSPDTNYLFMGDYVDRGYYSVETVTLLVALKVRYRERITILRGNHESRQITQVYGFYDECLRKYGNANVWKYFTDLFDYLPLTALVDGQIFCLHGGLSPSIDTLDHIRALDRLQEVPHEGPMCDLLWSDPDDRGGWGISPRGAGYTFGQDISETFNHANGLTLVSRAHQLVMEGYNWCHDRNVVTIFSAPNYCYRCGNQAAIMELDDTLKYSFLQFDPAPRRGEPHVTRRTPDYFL
Text: FIG. 2 is a model illustrating a visual representation of conformational changes in the PP2A A-C dimer as detected by radiolytic MS footprinting.
In order to elucidate the conformational changes in PP2A induced by SMAPs, we conducted structural mass spectrometry using radiolytic MS footprinting, a novel approach to probe the structural alterations of complexes such as PP2A. In these experiments, hydroxyl radicals are generated by an X-ray beam and oxidatively modify solvent-exposed amino acid side chains. Areas of a protein that are solvent inaccessible are spared these modifications and can be considered protected regions. Compared to the PP2A A-C dimer alone, addition of Compound 1 induced significant changes in solvent exposure in both the A and C subunits, indicating a conformational change (FIG. 2).

[3] = test system: A549; test: MTT assay with Compound 2/Dasatinib dose escalation combinations; format: cell-based; settings: dose escalation of both drugs in parallel
[4] = test system: SRC; test: Time course phosphoproteomics with KSEA, SRC output; format: cell-based; settings: H358 cells, 17.5 μM DT-061, relative to DMSO at the same time-point
Procedure: (§1) H358 cells (ATCC) were cultured at 37° C. and 5% CO2 using RPMI media supplemented with 10% FBS and 0.5% penicillin/streptomycin. Per condition, 20 million cells were treated with the appropriate reagent and harvested at the stated time point. The following are the doses used: 17.5 μM DT-061, 1 μM AZD6244, and 0.25 μM MK2206. Cell pellets were then stored at −80° C. for short term. To extract proteins, the cells were pulse sonicated in 2% SDS buffer over ice and in the presence of protease and phosphatase inhibitors. Cysteine amino acid residues were then reduced and alkylated. 800 μg of protein per sample was then digested with Lys-C and Trypsin overnight at 37° C. […]
(§2) The phospho-enriched peptides were analyzed by LC-MS/MS using a LTQ-Orbitrap Velos mass spectrometer (Thermo Scientific, Calif.) equipped with a nanoAcquity™ Ultra-high pressure liquid chromatography system (Waters, Mass.). […] The LC-MS/MS raw files were imported and analyzed by the Rosetta Elucidator™ and Mascot programs to sequence the peptides and to identify the parent protein.
(§3) The R programming language was used to generate the data and heat maps. […] Kinase-substrate relationships were determined from the PhosphoSitePlus database. […] The fold change (FC) for each identified hit was then calculated by taking the median peptide intensity with treatment, divided by median peptide intensity with DMSO. […]

[5] = test system: ERK; test: Time course phosphoproteomics with KSEA, ERK output; format: cell-based; settings: H358 cells, 17.5 μM DT-061, relative to DMSO at the same time-point
Procedure: as §1, §2, §3

[6] = C-terminal tail peptide [303-309]/C, residue Y or F
[7] = catalytic subunit peptide [178-186]/C, residue H179
[8] = peptide [198-217]/C, residue W200
[9] = peptide [200-217]/C, residue W209
[10] = peptide [200-223]/C, residue W200
[11] = peptide [200-223]/C, residue W209
[12] = peptide [200-223]/C, residue Y218
[13] = peptide [259-265]/C, residue Y265
[14] = peptide [279-286]/C, residue K283
[15] = peptide [279-286]/C, residue Y284

`O=S(=O)(NC[C@H](O)CN1c2ccccc2CCc2ccccc21)c1ccc(OC(F)(F)F)cc1` [Compound 1] was tested, and the Parp cleavage [1] was “resulting in Parp cleavage in a similar time-dependent manner”, the Y307 dephosphorylation kinetics [1] was “Y307 dephosphorylation occurs as a secondary event to the initial PP2A activation; also recorded: precede Y307 dephosphorylation” and the “dephosphorylation of c-Myc” value [1] was “very rapid dephosphorylation of c-Myc”. For the same compound, the “Modification Rate, S^−1 + Ligand” value [2, 6] was 0.56 ± 0.06 S^−1, the Protection factor [2, 6] was 12.0 and the “decrease in solvent accessibility of the C terminal tail of the catalytic subunit” value ([2]; Compound 1 treatment compared to control) was 12 fold. The “Modification Rate, S^−1 + Ligand” value [2, 7] was 2.4 ± 0.2 S^−1, the Protection factor [2, 7] was 7.2 and the “Modification Rate, S^−1 + Ligand” value [2, 8] was 1.8 ± 0.2 S^−1. For the same compound, the Protection factor [2, 8] was 6.2, the “Modification Rate, S^−1 + Ligand” value [2, 9] was 2.3 ± 0.1 S^−1 and the Protection factor [2, 9] was 4.6. For the same compound, the “Modification Rate, S^−1 + Ligand” value [2, 10] was 1.4 ± 0.1 S^−1, the Protection factor [2, 10] was 4.6 and the “Modification Rate, S^−1 + Ligand” value [2, 11] was 2.1 ± 0.1 S^−1. For the same compound, the Protection factor [2, 11] was 5.4, the “Modification Rate, S^−1 + Ligand” value [2, 12] was 0.31 ± 0.03 S^−1 and the Protection factor [2, 12] was 0.9. For the same compound, the “Modification Rate, S^−1 + Ligand” value [2, 13] was 0.12 ± 0.001 S^−1, the Protection factor [2, 13] was 4.8 and the “Modification Rate, S^−1 + Ligand” value [2, 14] was 0.14 ± 0.01 S^−1. The Protection factor [2, 14] was 15, the “Modification Rate, S^−1 + Ligand” value [2, 15] was 0.13 ± 0.01 S^−1 and the Protection factor [2, 15] was 6.1.

With `O=S(=O)(N[C@@H]1CCCC(N2c3ccccc3CCc3ccccc32)[C@H]1O)c1ccc(OC(F)(F)F)cc1` (stereo partly drawn) [Compound 2] the “decrease of the IC50 (GI50) of Compound 2” value [3] was “nearly two-fold”.

For `O=S(=O)(N[C@@H]1CCC[C@H](N2c3ccccc3Oc3ccccc32)[C@H]1O)c1ccc(OC(F)(F)F)cc1` [DT-061], the “SRC activity output (KSEA)” value [4] was “minimal changes in SRC output” and the “ERK activity output (KSEA)” value [5] was “limited suppression of ERK output”.
